Literature values, collected in patent publication US5462964A, “Dipeptide boronic acid inhibitors of trypsin-like enzymes” (The Du Pont Merck Pharmaceutical Company, priority 1993, dated 1995).

Columns and labels:
[1] = target: T1, thrombin (Homo sapiens, UniProt P00734); conditions: reversible inhibitor of thrombin; literature / EP 293 881
[2] = target: T1, thrombin; conditions: Kettner and Shaw Thromb. Res. 14, 969 (1979)
[3] = system: blood coagulation; conditions: both in vitro and in vivo; EP 293 881
[4] = target: chymotrypsin (Bos taurus, UniProt P00766); conditions: Matteson et al. J. Am. Chem. Soc. 103, 5241 (1981)

For `CC(=O)N[C@H](Cc1ccccc1)C(=O)N1CCC[C@H]1C(=O)N[C@H](C=O)CCCNC(=N)N` [Ac-D-Phe-Pro-Arg-H], the Ki [1] is given as 0.075 µM.
For `CC(=O)NC(Cc1ccccc1)C(=O)N1CCCC1C(=O)NC(CCCNC(=N)N)C(=O)CCl` [Ac-D-Phe-Pro-ArgCH2 Cl], the “inhibitor of human thrombin” value [2] is listed as “potent and selective irreversible inhibitor”.
In the case of `CC(=O)N[C@H](Cc1ccccc1)C(=O)N1CCC[C@H]1C(=O)N[C@@H](CCCN=C(N)N)B(O)O` [Ac-D-Phe-Pro-boroArgOH], the “inhibition of blood coagulation” value [3] is listed as “highly effective”.
In the case of `CC(=O)N[C@@H](Cc1ccccc1)B(O)O` [Ac-boroPhe-OH, (R)-1-acetamido-2-phenylethane boronic acid], the Ki [4] is listed as 4 µM.
